Assay results reported in publication PMC3877555 (Cell Death & Disease, 2013).

Target: HRas-GTP (Homo sapiens, UniProt P01112)
Experiment: SPR
Assay type: binding

Chain of HRas-GTP (P01112 1-186): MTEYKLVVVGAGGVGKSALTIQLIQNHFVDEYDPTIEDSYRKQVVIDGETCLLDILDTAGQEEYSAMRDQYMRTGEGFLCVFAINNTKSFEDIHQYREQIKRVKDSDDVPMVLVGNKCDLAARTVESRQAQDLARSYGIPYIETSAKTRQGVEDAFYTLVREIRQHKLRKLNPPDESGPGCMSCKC

## C[C@@]12C3=CC(=O)OCC3=C[C@H]3OC(=O)[C@](C)([C@H]31)[C@@H](O)[C@H]1O[C@H]12 [WA, Wentilactone A]
  Kd: 15.7 µM
